The values that follow are results of earlier work, collected in patent US8912167B2, “Heparin-based compositions and methods for the inhibition of metastasis” (priority 2011, dated 2014).

The conditions of this data set: under physiological conditions.

As for “tetra-[5-(L)-lysyl-amino-O-methylsalicylamide]”, the binding to heparin result was “bind heparin tightly and essentially irreversibly”.
